Here are results for one compound from article PMC10287695, “Non-covalent inhibitors of thioredoxin glutathione reductase with schistosomicidal activity in vivo” (Nature Communications, 2023).

One data set has as its system Vero cells. The data set can be described thus: Cytotoxicity in mammalian cells (Cell Titer Glo). Format: cell-based. Conditions: Vero cells. The protocol: Following overnight incubation, formulated DMSO-compound stock solutions were diluted with DMEM at <1% DMSO final concentrations. […] Vero cells treated similarly with different concentrations of PZQ, MZM and AF (Cayman Chemicals) were used as positive controls.
In general terms: In ATP-based viability assays light output follows the ATP content of the culture.

For another data set, the target named is T1, Human GR (Homo sapiens, UniProt P00390).
T1 construct: made in house
T1 sequence (P00390 44-522): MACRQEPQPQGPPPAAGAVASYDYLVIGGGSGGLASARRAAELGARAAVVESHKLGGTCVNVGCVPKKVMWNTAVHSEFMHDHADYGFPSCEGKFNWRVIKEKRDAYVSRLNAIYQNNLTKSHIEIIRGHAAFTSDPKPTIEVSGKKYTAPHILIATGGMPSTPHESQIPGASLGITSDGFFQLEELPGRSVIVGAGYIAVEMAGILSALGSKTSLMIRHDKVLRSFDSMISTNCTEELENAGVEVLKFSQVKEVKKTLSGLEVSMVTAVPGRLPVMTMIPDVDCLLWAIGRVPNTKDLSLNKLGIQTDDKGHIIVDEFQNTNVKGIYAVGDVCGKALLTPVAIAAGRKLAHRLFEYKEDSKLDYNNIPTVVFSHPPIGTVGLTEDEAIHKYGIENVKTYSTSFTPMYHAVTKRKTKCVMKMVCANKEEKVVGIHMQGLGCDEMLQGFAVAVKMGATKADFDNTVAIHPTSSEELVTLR
Kind of data set: Human GR enzyme inhibition (GSSG reduction, NADPH oxidation). Format: biochemical. The note with it: hGR. The protocol: Recombinant TGR, human TrxR1, B. malayi (Bm)TrxR and human GR proteins were expressed and purified as described[20],[69],[79]. The codon optimized sequence for P. falciparum (PfTrxR, https://www.ncbi.nlm.nih.gov/protein/CAA60574.1/) with an N-terminal 6-His tag was synthesized and inserted into pET15b (GenScript) and expressed in BL21 (DE3) cells and purified as described for human GR[20]. TGR and TrxR enzyme inhibition assays were performed in triplicate at 25 °C as described[20] in 0.1 M potassium phosphate (pH 7.4), 10 mM EDTA, 100 µM NADPH and 0.01% Tween-20. TGR, human TrxR1 and BmTrxR (all at 4 nM) and PfTrxR (50 nM) were preincubated with the compounds for 15 min. The reaction was started with addition of an equal volume of DTNB (6 mM) and NADPH (100 µM) and the increase in A412 during the first 3 min was recorded. […] […] Activity was initiated with the addition of 1 mM GSSG and 100 μM NADPH and initial rates of NADPH oxidation were monitored at 340 nm. The reactions were done in triplicate. The IC50 was calculated in GraphPad Prism.

Another data set addresses T2, S. mansoni TGR (Schistosoma mansoni, UniProt Q962Y6).
T2 construct: made in house
T2 sequence (Q962Y6 1-598): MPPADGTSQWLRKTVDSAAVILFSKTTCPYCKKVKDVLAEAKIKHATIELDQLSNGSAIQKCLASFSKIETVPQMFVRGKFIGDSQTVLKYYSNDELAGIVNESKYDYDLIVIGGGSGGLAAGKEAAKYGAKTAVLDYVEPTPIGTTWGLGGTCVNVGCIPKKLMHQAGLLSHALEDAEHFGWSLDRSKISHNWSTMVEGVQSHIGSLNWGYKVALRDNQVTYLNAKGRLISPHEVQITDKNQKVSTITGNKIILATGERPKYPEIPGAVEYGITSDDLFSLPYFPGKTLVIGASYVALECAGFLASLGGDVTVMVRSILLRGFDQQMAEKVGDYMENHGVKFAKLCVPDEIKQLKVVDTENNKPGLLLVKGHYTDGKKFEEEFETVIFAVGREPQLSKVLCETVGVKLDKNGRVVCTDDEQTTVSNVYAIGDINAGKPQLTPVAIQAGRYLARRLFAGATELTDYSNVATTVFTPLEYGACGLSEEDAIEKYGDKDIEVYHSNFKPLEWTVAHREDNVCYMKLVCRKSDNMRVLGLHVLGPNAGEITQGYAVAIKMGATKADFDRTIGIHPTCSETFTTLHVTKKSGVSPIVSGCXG
The data set can be described thus: S. mansoni TGR enzyme inhibition (DTNB reduction). The note with it: TGR. Format: biochemical. The protocol:
Recombinant TGR, human TrxR1, B. malayi (Bm)TrxR and human GR proteins were expressed and purified as described[20],[69],[79]. The codon optimized sequence for P. falciparum (PfTrxR, https://www.ncbi.nlm.nih.gov/protein/CAA60574.1/) with an N-terminal 6-His tag was synthesized and inserted into pET15b (GenScript) and expressed in BL21 (DE3) cells and purified as described for human GR[20]. TGR and TrxR enzyme inhibition assays were performed in triplicate at 25 °C as described[20] in 0.1 M potassium phosphate (pH 7.4), 10 mM EDTA, 100 µM NADPH and 0.01% Tween-20. […] The reaction was started with addition of an equal volume of DTNB (6 mM) and NADPH (100 µM) and the increase in A412 during the first 3 min was recorded. […] The reaction was preincubated for 15 min. Activity was initiated with the addition of 1 mM GSSG and 100 μM NADPH and initial rates of NADPH oxidation were monitored at 340 nm. The reactions were done in triplicate. The IC50 was calculated in GraphPad Prism.

In data set [1] the test system is S. mansoni newly transformed schistosomula (NTS). Kind of data set: Schistosomicidal activity ex vivo, NTS (Cell Titer Glo). Format: cell-based. The note with it: S. mansoni NTS. The protocol: Oncomelania hupensis subsp. hupensis, Chinese strain, infected with S. japonicum, Chinese strain, and Biomphalaria glabrata, strain NMRI, infected with S. mansoni, strain NMRI, were provided by the NIAID Schistosomiasis Resource Center for distribution through BEI Resources, NIAID, NIH. After infections were patent, snails were exposed to bright light for 1 hr to obtain cercariae. Cercariae were mechanically transformed to schistosomula. Briefly, cercariae were placed on ice for 30 min and then centrifuged at 350 × g for 10 mins. The supernatant was decanted and 2 ml of serum-free M199 medium was added to cercarial pellets and vortexed for 1 min until cercarial tails were detached. NTS were purified by layering on 4 °C Percoll gradient suspension containing Eagle’s minimum essential medium, penicillin-streptomycin (10,000 U per ml penicillin/10,000 U per ml streptomycin), and 1 M HEPES in 0.85% NaCl with cercariae suspension and centrifuged at 500 × g for 15 min. Cercarial pellets were resuspended and washed thrice in serum-free M199 medium and collected at 100 × g for 5 min. NTS (240) were transferred to U-bottom 96 well assay plates containing 200 µl of M199 medium supplemented with 5.5 mM D-glucose, penicillin-streptomycin and 5% heat inactivated fetal bovine serum and incubated at 37 °C in a 5% CO2 incubator overnight.
DMSO formulated compounds were diluted with phenol red free M199 medium or RPMI medium for NTS or juvenile and adult worms, respectively, at <1% DMSO final concentrations. NTS, juvenile and adult worms from overnight cultures were tested against compounds in triplicate. Controls were treated with DMSO alone or 5 µM AF as a positive control in appropriate medium. Worm viability was assessed at 24 or 72 h by measuring ATP content of worms using Cell Titer Glo Assay (Promega) as described. Schistosome viabilities in the presence of the compounds were assessed using this formula: % Viability = Averages of Test / Averages of DMSO Control x 100.

Where [2] appears, read: 15 minutes pre-incubation, compound 15 µM.
The mark [3] stands for this setting: 15 minutes pre-incubation, compound 30 µM.
Setting [4] is: 15 minutes pre-incubation, compound 66.7 µM.
Where [5] appears, read: 6 hours pre-incubation, compound 15 µM.
[6] abbreviates: 6 hours pre-incubation, compound 30 µM.
Where [7] appears, read: 6 hours pre-incubation, compound 66.7 µM.

The % inhibition is the change of the read-out against control, counted positive when it falls.

For the compound `Cc1oc(C2CCCCC2)nc1CN[C@@H]1C[C@@H]2C[C@H]([C@H]1C)C2(C)C` [C4], the “% viability” value in the data set with Vero cells (Conc. 5 µM) was 99.7864%; with Vero cells (Conc. 10 µM), 99.8193%; with Vero cells (Conc. 25 µM), 95.3884%; in the data set on Vero cells (Conc. 35 µM), 94.379%; in the data set with Vero cells (Conc. 50 µM), 91.2714%; in data set [1] (Conc. 1 µM) it was 51.9254%. The “% viability” value worked out at 22.4326% in data set [1] (Conc. 5 µM), 2.552% in data set [1] (Conc. 15 µM), 0.3078% in data set [1] (Conc. 30 µM) and 0.1166% in data set [1] (Conc. 50 µM). The “% inhibition” value is given as -0.5314% on Human GR (setting [2]); -1.471% on Human GR (setting [3]); -0.894% at Human GR (setting [4]); -2.859% on Human GR (setting [5]); -0.4408% at Human GR (setting [6]); -0.3554% on Human GR (setting [7]). Further, the “% inhibition” value was 4.307% at S. mansoni TGR (setting [2]); 7.284% on S. mansoni TGR (setting [3]); 12.4488% at S. mansoni TGR (setting [4]); 20.5703% on S. mansoni TGR (setting [5]); 43.128% on S. mansoni TGR (setting [6]); 68.6238% on S. mansoni TGR (setting [7]).
